Assay results published in ChEMBL document CHEMBL1123447, “Biologically active derivatives of gossypol: synthesis and antimalarial activities of peri-acylated gossylic nitriles” (J Med Chem, 1986).

Assays:
Plasmodium falciparum [1] = test: Antimalarial activity against chloroquine-resistant Plasmodium falciparum FCB/NC1; assay type: functional, organism-based
Plasmodium falciparum [2] = test: Antimalarial activity against chloroquine-sensitive Plasmodium falciparum CDC/I/HB-3; assay type: functional, organism-based
[3] = Compound was tested for the inhibition of LDH from a chloroquine-resistant strain (FCB/NC-1) of Plasmodium falciparum

`CCC(=O)Oc1c(-c2c(C)cc3c(C(C)C)c(O)c(O)c(C#N)c3c2OC(=O)CC)c(C)cc2c(C(C)C)c(O)c(O)c(C#N)c12` showed an IC50 (Plasmodium falciparum [1]) of 69 µM, an IC50 (Plasmodium falciparum [2]) of 46 µM and a Ki [3] of 1.1 µM.

In the case of `CC(=O)Oc1c(-c2c(C)cc3c(C(C)C)c(O)c(O)c(C#N)c3c2OC(C)=O)c(C)cc2c(C(C)C)c(O)c(O)c(C#N)c12`, the IC50 (Plasmodium falciparum [1]) is reported as 76 µM, the IC50 (Plasmodium falciparum [2]) is reported as 36 µM and the Ki [3] is reported as 0.83 µM.

In the case of `CCCCC(=O)Oc1c(-c2c(C)cc3c(C(C)C)c(O)c(O)c(C#N)c3c2OC(=O)CCCC)c(C)cc2c(C(C)C)c(O)c(O)c(C#N)c12`, the IC50 (Plasmodium falciparum [1]) is reported as 16 µM, the IC50 (Plasmodium falciparum [2]) is reported as 12 µM and the Ki [3] is reported as 0.33 µM.

`CCCC(=O)Oc1c(-c2c(C)cc3c(C(C)C)c(O)c(O)c(C#N)c3c2OC(=O)CCC)c(C)cc2c(C(C)C)c(O)c(O)c(C#N)c12` gave an IC50 (Plasmodium falciparum [1]) of 26 µM, an IC50 (Plasmodium falciparum [2]) of 21 µM and a Ki [3] of 0.62 µM.

`Cc1cc2c(C(C)C)c(O)c(O)c(C=O)c2c(O)c1-c1c(C)cc2c(C(C)C)c(O)c(O)c(C=O)c2c1O` [GOSSYPOL] showed an IC50 (Plasmodium falciparum [1]) of 13 µM and an IC50 (Plasmodium falciparum [2]) of 7 µM.
